The values below come from patent US11420970B1 (NOVARTIS AG, priority 2019, dated 2022).

The test system of experiment [1] is cellular H3K36me2 level in thyroid carcinoma cell line CGTH-W-1 (NSD2 E1099K). In words: H3K36me2 cellular ELISA assay in CGTH-W-1 line. In kind it is cell-based. The following applies: Homo sapiens, CGTH-W-1, 72 h, read-out: H3K36me2 ELISA in CGTH-W-1. An outline of the steps: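 CGTH-W-1 thyroid carcinoma cells (NSD2 E1099K gain-of-function) exposed to compound for 72 hours. Histone-bound plates probed for H3K36me2 and total H3 by chemiluminescent ELISA. Viability checked on a parallel plate with CellTiter-Glo.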
A general note: ELISA stands for enzyme-linked immunosorbent assay.

Experiment [2] addresses NSD2 [1-1365] (Homo sapiens (Human), UniProt O96028). In words: LC-MS/MS-based NSD2 enzymatic assay (SAH production). In kind it is biochemical. An outline of the steps: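 Full-length NSD2 [1-1365] (8 nM final) with 1 μM SAM and 400 nM mouse-liver nucleosome in Tris pH 8.0 buffer; inhibitor preincubated 20 min with enzyme/SAM before nucleosome addition. Reaction 90 min at room temperature, TFA-quenched; SAH quantified by LC-MS/MS against d4-SAH internal standard and SAH standard curve.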

Experiment [3] deals with cellular H3K36me2 level in multiple myeloma cell line KMS11 (t(4;14)+). In words: H3K36me2 cellular ELISA assay in KMS11-Par line. The format is cell-based. The following applies: Homo sapiens, KMS-11; KMS11-Par line, ELISA, 72 hours; read-out: H3K36me2 ELISA in KMS11-Par. The method, boiled down: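 KMS11 cells were seeded a day ahead at 1,250 per well in Opti-MEM with B-27/N2, then treated with compound for 72 h. Histones were acid-extracted with 0.4M HCl, and H3K36me2 and total H3 were read by chemiluminescent ELISA. Viability was checked with CellTiter-Glo on a parallel plate in maintenance media.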

Structures are written as SMILES. Like-named read-outs stand apart in the source and are kept apart here.

Chain of NSD2 [1-1365] (O96028 whole entry): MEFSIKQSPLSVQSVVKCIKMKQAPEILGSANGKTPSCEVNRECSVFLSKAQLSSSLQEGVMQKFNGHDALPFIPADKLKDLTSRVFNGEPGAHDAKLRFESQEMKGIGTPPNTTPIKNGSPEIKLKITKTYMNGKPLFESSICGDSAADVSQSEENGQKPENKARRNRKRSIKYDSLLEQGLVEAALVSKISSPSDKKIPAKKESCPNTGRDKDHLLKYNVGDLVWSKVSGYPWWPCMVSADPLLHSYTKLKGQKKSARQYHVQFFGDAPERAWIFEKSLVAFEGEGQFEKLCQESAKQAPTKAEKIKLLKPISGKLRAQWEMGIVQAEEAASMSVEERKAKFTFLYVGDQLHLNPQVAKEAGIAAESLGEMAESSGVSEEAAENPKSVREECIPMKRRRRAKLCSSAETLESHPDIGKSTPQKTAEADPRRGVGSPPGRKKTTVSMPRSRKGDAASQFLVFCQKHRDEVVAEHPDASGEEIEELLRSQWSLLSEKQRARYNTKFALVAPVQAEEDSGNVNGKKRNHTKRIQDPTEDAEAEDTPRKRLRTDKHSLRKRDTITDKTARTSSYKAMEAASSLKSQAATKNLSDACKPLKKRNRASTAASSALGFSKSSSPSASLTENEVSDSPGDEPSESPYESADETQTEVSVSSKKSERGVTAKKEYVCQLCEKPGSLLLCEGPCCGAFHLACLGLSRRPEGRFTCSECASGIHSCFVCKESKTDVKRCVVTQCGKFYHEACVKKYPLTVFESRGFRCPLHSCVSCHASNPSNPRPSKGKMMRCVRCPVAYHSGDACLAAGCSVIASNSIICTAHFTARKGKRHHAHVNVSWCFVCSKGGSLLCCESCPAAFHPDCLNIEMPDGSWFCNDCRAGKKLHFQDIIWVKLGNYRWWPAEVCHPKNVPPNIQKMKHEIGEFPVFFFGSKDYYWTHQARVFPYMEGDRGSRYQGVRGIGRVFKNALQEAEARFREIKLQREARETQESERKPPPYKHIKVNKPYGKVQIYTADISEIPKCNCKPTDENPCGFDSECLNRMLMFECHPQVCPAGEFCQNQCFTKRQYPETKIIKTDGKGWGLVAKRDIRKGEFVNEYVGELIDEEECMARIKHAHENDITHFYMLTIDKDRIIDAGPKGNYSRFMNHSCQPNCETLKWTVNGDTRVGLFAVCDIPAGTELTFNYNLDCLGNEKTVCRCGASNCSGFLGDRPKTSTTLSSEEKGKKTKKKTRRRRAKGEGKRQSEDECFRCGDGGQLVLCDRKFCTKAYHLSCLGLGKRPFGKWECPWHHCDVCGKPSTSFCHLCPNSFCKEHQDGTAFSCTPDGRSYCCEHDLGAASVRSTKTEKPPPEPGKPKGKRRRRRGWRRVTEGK

Take `COc1c(F)cc(-c2cc(Cn3cnc4c(N)ncnc43)c(N3CCC[C@](N)(c4cccc(Cl)n4)C3)cn2)cc1F` [Example 233, (R)-9-((5-(3-amino-3-(6-chloropyridin-2-yl)piperidin-1-yl)-2-(3,5-difluoro-4-methoxyphenyl)pyridin-4-yl)methyl)-9H-purin-6-amine]: the figures for the IC50 in experiment [1], in experiment [2] (read-out: NSD2 IC50) and in experiment [3] were 341 nM, 1 to 10 nM and 1100 nM, respectively.
Take `CC(O)c1ccc([C@@]2(N)CCCN(c3cnc(-c4ccc(F)c(F)c4)cc3Cn3cnc4c(N)ncnc43)C2)nc1Cl` (stereo partly drawn) [Example 234, 1-(6-((R)-3-amino-1-(4-((6-amino-9H-purin-9-yl)methyl)-6-(3,4-difluorophenyl)pyridin-3-yl)piperidin-3-yl)-2-chloropyridin-3-yl)ethan-1-ol]: the values for the IC50 in experiment [1], in experiment [2] (read-out: NSD2 IC50) and in experiment [3] were 1620 nM, 10 to 1000 nM and 5990 nM, respectively.
Regarding `COc1cc(F)nc([C@@]2(N)CCCN(c3cnc(-c4ccc(F)c(F)c4)cc3Cn3cnc4c(N)ncnc43)C2)c1` [Example 235, (R)-9-((5-(3-amino-3-(6-fluoro-4-methoxypyridin-2-yl)piperidin-1-yl)-2-(3,4-difluorophenyl)pyridin-4-yl)methyl)-9H-purin-6-amine], the IC50 in experiment [1] is 705 nM; in experiment [2] (read-out: NSD2 IC50), 1 to 10 nM; in experiment [3], 970 nM.
On to `COc1cc(F)c(-c2cc(Cn3cnc4c(N)ncnc43)c(N3CCC[C@](N)(c4cccc(Cl)n4)C3)cn2)c(F)c1` [Example 236, (R)-9-((5-(3-amino-3-(6-chloropyridin-2-yl)piperidin-1-yl)-2-(2,6-difluoro-4-methoxyphenyl)pyridin-4-yl)methyl)-9H-purin-6-amine], for which the IC50 in experiment [1] was 1390 nM; in experiment [2] (read-out: NSD2 IC50) it was 10 to 1000 nM; in experiment [3], 6300 nM.
For `Nc1ncnc2c1ncn2Cc1cc(-c2cc(F)c(F)cc2F)ncc1N1CCC[C@](N)(c2cccc(Cl)n2)C1` [Example 237] the same measures were 825 nM, 10 to 1000 nM and 2020 nM.
For `Nc1ncnc2c1ncn2Cc1cc(-c2ccc(F)cc2F)ncc1N1CCC[C@](N)(c2cccc(Cl)n2)C1` [Example 238, (R)-9-((5-(3-amino-3-(6-chloropyridin-2-yl)piperidin-1-yl)-2-(2,4-difluorophenyl)pyridin-4-yl)methyl)-9H-purin-6-amine] the same measures were 588 nM, 1 to 10 nM and 1340 nM.
For `Nc1ncnc2c1ncn2Cc1cc(-c2ccc(F)c(F)c2)ncc1N1CCC[C@](N)(c2nc(F)ccc2O)C1` [Example 239, (R)-2-(3-amino-1-(4-((6-amino-9H-purin-9-yl)methyl)-6-(3,4-difluorophenyl)pyridin-3-yl)piperidin-3-yl)-6-fluoropyridin-3-ol] the same measures were 353 nM, 1 to 10 nM and 1540 nM.
Take `Nc1ncnc2c1ncn2Cc1cc(-c2cnc(F)c(F)c2)ncc1N1CCCC(N)(c2cccc(Cl)n2)C1` (stereo not drawn) [Example 240, 9-((5-(3-amino-3-(6-chloropyridin-2-yl)piperidin-1-yl)-5′,6′-difluoro-[2,3′-bipyridin]-4-yl)methyl)-9H-purin-6-amine]: the IC50 in experiment [1] was 821 nM; in experiment [2] (read-out: NSD2 IC50), 10 to 1000 nM; in experiment [3] it was 5930 nM.
The like results for `COc1ccc(-c2cc(Cn3cnc4c(N)ncnc43)c(N3CCC[C@](N)(c4ccc(F)c(C)n4)C3)cn2)cc1` [Example 241, (R)-9-((5-(3-amino-3-(5-fluoro-6-methylpyridin-2-yl)piperidin-1-yl)-2-(4-methoxyphenyl)pyridin-4-yl)methyl)-9H-purin-6-amine] were, in that order, 1190 nM, 10 to 1000 nM and 4080 nM.
For `COc1ccc(-c2cc(Cn3cnc4c(N)ncnc43)c(N3CCC[C@](N)(c4cccc(Cl)n4)C3)cn2)c(F)c1F` [Example 242, (R)-9-((5-(3-amino-3-(6-chloropyridin-2-yl)piperidin-1-yl)-2-(2,3-difluoro-4-methoxyphenyl)pyridin-4-yl)methyl)-9H-purin-6-amine], the IC50 in experiment [1] was 2710 nM; in experiment [2] (read-out: NSD2 IC50), 10 to 1000 nM; in experiment [3], 8190 nM.
The like results for `COc1cnc(-c2cc(Cn3cnc4c(N)ncnc43)c(N3CCC[C@](N)(c4cccc(Cl)n4)C3)cn2)cc1F` [Example 243, (R)-9-((5-(3-amino-3-(6-chloropyridin-2-yl)piperidin-1-yl)-4′-fluoro-5′-methoxy-[2,2′-bipyridin]-4-yl)methyl)-9H-purin-6-amine] were, in that order, 541 nM, 1 to 10 nM and 2440 nM.
Take `Nc1ncnc2c1ncn2Cc1cc(-c2cnc(O)c(F)c2)ncc1N1CCCC(N)(c2cccc(Cl)n2)C1` (stereo not drawn) [Example 244, 5-(3-amino-3-(6-chloropyridin-2-yl)piperidin-1-yl)-4-((6-amino-9H-purin-9-yl)methyl)-5′-fluoro-[2,3′-bipyridin]-6′-ol]: the IC50 in experiment [1] was 12500 nM; in experiment [2] (read-out: NSD2 IC50) it was 10 to 1000 nM; in experiment [3] it was 33300 nM.
The like results for `CCc1nccc([C@@]2(N)CCCN(c3cnc(-c4ccc(F)c(F)c4)cc3Cn3cnc4c(N)ncnc43)C2)n1` [Example 251, (R)-9-((5-(3-amino-3-(2-ethylpyrimidin-4-yl)piperidin-1-yl)-2-(3,4-difluorophenyl)pyridin-4-yl)methyl)-9H-purin-6-amine] were, in that order, 440 nM, 10 to 1000 nM and 1520 nM.
The like results for `Nc1ncnc2c1ncn2Cc1cc(-c2ccc(F)c(F)c2)ncc1N1CCC[C@](N)(c2ccc[nH]c2=O)C1` [Example 272, (S)-3-(3-amino-1-(4-((6-amino-9H-purin-9-yl)methyl)-6-(3,4-difluorophenyl)pyridin-3-yl)piperidin-3-yl)pyridin-2(1H)-one] were, in that order, 1750 nM, 1 to 10 nM and 10500 nM.
In the case of `Cn1ncc([C@@]2(N)CCCN(c3cnc(-c4ccc(F)c(F)c4)cc3Cn3cnc4c(N)ncnc43)C2)n1` [Example 283, (R)-9-((5-(3-amino-3-(2-methyl-2H-1,2,3-triazol-4-yl)piperidin-1-yl)-2-(3,4-difluorophenyl)pyridin-4-yl)methyl)-9H-purin-6-amine], the IC50 in experiment [1] was 110 nM; in experiment [2] (NSD2 IC50), 1 to 10 nM; in experiment [3], 1020 nM.
As to `Cc1cc([C@@]2(N)CCCN(c3cnc(-c4ccc(F)c(F)c4)cc3Cn3cnc4c(N)ncnc43)C2)no1` [Example 284, (R)-9-((5-(3-amino-3-(5-methylisoxazol-3-yl)piperidin-1-yl)-2-(3,4-difluorophenyl)pyridin-4-yl)methyl)-9H-purin-6-amine], the IC50 in experiment [1] is 111 nM; in experiment [2] (read-out: NSD2 IC50) it was 1 to 10 nM; in experiment [3], 254 nM.
For the compound `Nc1ncnc2c1ncn2Cc1cc(-c2ccc(F)c(F)c2)ncc1N1CCC[C@](N)([C@@H](F)CO)C1` [Example 285, (R)-2-((R)-3-amino-1-(4-((6-amino-9H-purin-9-yl)methyl)-6-(3,4-difluorophenyl)pyridin-3-yl)piperidin-3-yl)-2-fluoroethan-1-ol], the IC50 in experiment [1] is 43.7 nM; in experiment [2] (read-out: NSD2 IC50), 1 to 10 nM; in experiment [3], 885 nM.
Turning to `Nc1ncnc2c1ncn2Cc1cc(-c2cc(F)c(F)cc2F)ncc1N1CCC[C@](N)([C@@H](F)CO)C1` [Example 286, (R)-2-((R)-3-amino-1-(4-((6-amino-9H-purin-9-yl)methyl)-6-(2,4,5-trifluorophenyl)pyridin-3-yl)piperidin-3-yl)-2-fluoroethan-1-ol], the IC50 in experiment [1] was 5.9 nM; in experiment [2] (read-out: NSD2 IC50) it was 1 to 10 nM; in experiment [3], 655 nM.
For `C[C@H]1COC[C@@H]([C@@]2(N)CCCN(c3cnc(-c4ccc(F)c(F)c4)cc3Cn3cnc4c(N)ncnc43)C2)O1` [Example 288, 9-((5-((R)-3-amino-3-((2R,6S)-6-methyl-1,4-dioxan-2-yl)piperidin-1-yl)-2-(3,4-difluorophenyl)pyridin-4-yl)methyl)-9H-purin-6-amine] the same measures were 2390 nM, 10 to 1000 nM and 5720 nM.
For `Nc1ncnc2c1ncn2Cc1cc(-c2ccc(F)c(F)c2)ncc1N1CCC[C@](N)([C@@H]2COCCO2)C1` [Example 289, 9-((5-((R)-3-amino-3-((R)-1,4-dioxan-2-yl)piperidin-1-yl)-2-(3,4-difluorophenyl)pyridin-4-yl)methyl)-9H-purin-6-amine] the same measures were 492 nM, 1 to 10 nM and 2670 nM.
Consider `Nc1ncnc2c1ncn2Cc1cc(-c2cc(F)c(F)cc2F)ncc1N1CCC[C@](N)([C@@H]2COCCO2)C1` [Example 290, 9-((5-((R)-3-amino-3-((R)-1,4-dioxan-2-yl)piperidin-1-yl)-2-(2,4,5-trifluorophenyl)pyridin-4-yl)methyl)-9H-purin-6-amine], for which the IC50 in experiment [1] was 421 nM; in experiment [2] (read-out: NSD2 IC50), 10 to 1000 nM; in experiment [3], 954 nM.
